{"source": "patent US20230123585A1", "about": "“COMPOSITIONS AND METHODS FOR TREATING OR PREVENTING CANCER USING DEUBIQUITINASE INHIBITORS” (The University of Chicago, priority 2020, published 2023)", "key": {"[1]": {"system": "m^6A methyltransferase complex in HCT-116 cells", "test": "Immunoblot of m^6A methyltransferase complex in HCT-116 cell lysates", "format": "cell-based", "conditions": "8 h, 10 μM PD0325901 or 0.1 μM trametinib", "protocol": "FIGS. 14A-14I: Phosphorylation of the m^6A Methyltransferase Complex May Affect Tumorigenesis. (A) Oncogenes (promote cancer), tumor suppressors (inhibit carcinogenesis), and drivers (important in cancer development, either oncogene or tumor suppressor) were used as classifiers by Cancermine database to identify the potential role of METTL3 from the published literature. (B) LC-MS/MS quantification of the m^6A/A ratio in mRNA of melanoma cell lines. (C) After 8 h treatment with 10 μM PD0325901 or 0.1 μM tramentib, cell lysates from HCT-116 cells were analyzed by immunoblot. (D) Kaplan-Meier analysis of overall survival time based on METTL3 expression from the skin cutaneous melanoma (SKCM) dataset at The Cancer Genome Atlas (TCGA). […] The ubiquitination of METTL3 was detected by IP with anti-METTL3 and immunoblot with anti-HA. (F) After 8 hr treatment with 10 μM EOAI3402143 (EOAI) or 30 μM vialinin A, cell lysates from HCT-116 cells were analyzed by immunoblot. […] (I) LC-MS/MS quantification of the m^6A/A ratio in mRNA of breast cancer cell lines.\n(§1) Immunoprecipitation, immunoblotting, and in vitro kinase assay. […] Primary antibodies were detected by HRP-linked secondary antibodies (Cell Signaling) together with SuperSignal West Pico Plus chemiluminescent substrate (Thermo Scientific) and imaged in a FluorChem R system (ProteinSimple)."}, "ubiquitination of METTL3": {"system": "ubiquitination of METTL3", "test": "Ubiquitination of METTL3 in A375 cells transfected with HA-ubiquitin (IP anti-METTL3, immunoblot anti-HA)", "format": "cell-based, human", "conditions": "10 μM MG-132 and PD0325901 for 8 h", "protocol": "FIGS. 11A-11G: USP5 is Required for ERK-Mediated METTL3 Stabilization. (A) A375 cells transfected with HA-ubiquitin (ub) were treated with 10 μM MG-132 and MEK inhibitor PD0325901 for 8 h. The ubiquitination of METTL3 was detected by IP with anti-METTL3 and immunoblot with anti-HA. (B) After 8 h treatment with 10 μM PD0325901 with or without 10 μM MG-132, cell lysates from A375 cells were analyzed by immunoblot. (C) A375 cells were treated with various concentrations of PD0325901 for 1 h. Cell lysates were subjected to IP with METTL3 antibody followed by immunoblot. (D) 293T cells transfected as indicated were subjected to IP/immunoblot analysis. (E) Immunofluorescence analysis of myc-METTL3 (green) in mESC stable transfectants. DAPI (blue) was used to mark the nucleus. (F) Lysates of 293T cells transfected as indicated were subjected to IP with anti-Flag antibody followed by immunoblot. (G) Immunofluorescence analysis of 293T cells co-transfected with myc-METTL3 (green), Flag-USP5 (red) with or without constitutively active B-RAF.\nFIGS. 14A-14I: Phosphorylation of the m^6A Methyltransferase Complex May Affect Tumorigenesis. […] (B) LC-MS/MS quantification of the m^6A/A ratio in mRNA of melanoma cell lines. (C) After 8 h treatment with 10 μM PD0325901 or 0.1 μM tramentib, cell lysates from HCT-116 cells were analyzed by immunoblot. […] The ubiquitination of METTL3 was detected by IP with anti-METTL3 and immunoblot with anti-HA. (F) After 8 hr treatment with 10 μM EOAI3402143 (EOAI) or 30 μM vialinin A, cell lysates from HCT-116 cells were analyzed by immunoblot. […] (I) LC-MS/MS quantification of the m^6A/A ratio in mRNA of breast cancer cell lines.\nas §1"}, "mRNA m^6A in A375 cells": {"system": "mRNA m^6A in A375 cells", "test": "LC-MS/MS quantification of the m^6A/A ratio in mRNA of A375 cells", "format": "cell-based, human", "conditions": "A375 melanoma cells, 48 h, 10 μM PD0325901 or 0.1 μM trametinib", "protocol": "FIGS. 6A-6H: Phosphorylation of the m^6A Methyltransferase Complex May Affect Tumorigenesis. (A) Lysates of A375 stable transfectants harvested at different time points after treatment with cycloheximide (CHX) 10 μg/ml were analyzed by immunoblot. (B) LC-MS/MS quantification of the m^6A/A ratio in mRNA of A375 stable transfectants. (C) After 8 h treatment with 10 μM PD0325901 or 0.1 μM tramentib, cell lysates from A375 cells were analyzed by immunoblot. (D) LC-MS/MS quantification of the m^6A/A ratio in mRNA of A375 cells treated with 10 μM PD0325901 or 0.1 μM tramentib for 48 h. (E) After 8hr treatment with 10 μM EOAI3402143 (EOAI) or 30 μM vialinin A , cell lysates from A375 cells were analyzed by immunoblot. […] (H) LC-MS/MS quantification of the m^6A/A ratio in mRNA of SKBR3 and BT474 cells treated with 1 μM tucatinib and 1 μM lapatinib for 48 h. […]\nLC-MS/MS quantification of m^6A in poly(A) RNA. mRNA was extracted from the total RNA using 2 rounds of the Dynabeads mRNA purification kit. […] The nucleosides were quantified by using the nucleoside-to-base ion mass transitions of 282 to 150 (m^6A) and 268 to 136 (A). Quantification was carried out by comparison with a standard curve obtained from pure nucleoside. The ratio of m^6A to A was calculated based on the calibrated concentrations (Liu et al., 2018)."}}}
{"smiles": "O=C(NOC[C@H](O)CO)c1ccc(F)c(F)c1Nc1ccc(I)cc1F", "note": "[PD0325901]", "values": [{"measurement": "m^6A methyltransferase complex level", "setting": "[1]", "value": "decreased"}, {"measurement": "ubiquitination of METTL3", "setting": "ubiquitination of METTL3", "value": "increased"}, {"measurement": "overall mRNA m^6A levels (m^6A/A ratio)", "setting": "mRNA m^6A in A375 cells", "value": "reduce"}]}
